Source: ChEMBL document CHEMBL1132875, “Bicyclic pyridones as potent, efficacious and orally bioavailable thrombin inhibitors” (Bioorg Med Chem Lett, 2000)
pKi: −log10 of the molar value.

How the values were obtained:
Rattus norvegicus [1] = assay: Final plasma concentration when 10 ug/kg/min compound administered intravenously in rat; format: ADME, organism-based; settings: in vivo, iv, 0.01 mg/kg
Rattus norvegicus [2] = assay: Compound was tested in vivo for its antithrombotic efficacy in six rats upon intravenous administration of 10 ug/kg/min dose and activity expressed as number of occlusions
[3] = Oral absorption kinetics (AUC) was determined after administration of compound orally at 1 mg/kg in dogs; format: ADME, organism-based, Canis lupus familiaris; set-up: dose 1 mg/kg, route oral; settings: dog, in vivo
[4] = (§1) Half life was determined after oral administration at 1 mg/kg in dogs; format: ADME, organism-based, Canis lupus familiaris; set-up: dose 1 mg/kg, route oral; settings: dog, in vivo
[5] = The compound was tested in vitro for its anticoagulant potency (2x APTT) of human plasma; format: functional
Serine protease 1 = Serine protease 1 (Homo sapiens, UniProt P07477); assay: The compound was tested for its ability to inhibit trypsin.
Serine protease 1, sequence (P07477 whole entry): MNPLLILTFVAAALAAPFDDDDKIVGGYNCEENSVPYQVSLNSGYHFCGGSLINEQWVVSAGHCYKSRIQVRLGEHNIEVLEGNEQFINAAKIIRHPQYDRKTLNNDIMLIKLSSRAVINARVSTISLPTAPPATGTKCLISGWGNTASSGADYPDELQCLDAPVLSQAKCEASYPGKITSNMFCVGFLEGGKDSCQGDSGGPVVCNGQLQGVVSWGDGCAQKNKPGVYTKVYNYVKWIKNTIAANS

Prothrombin = Prothrombin (Homo sapiens, UniProt P00734); assay: The compound was tested for its ability to inhibit thrombin.
[6] = Cmax in dog plasma after 1mg/kg oral dose; format: ADME, organism-based, Canis lupus familiaris; set-up: dose 1 mg/kg, route oral
[7] = Maximum time taken for oral absorption was determined after oral administration at 1 mg/kg in dogs; format: ADME, organism-based, Canis lupus familiaris; set-up: dose 1 mg/kg, route oral; settings: dog, in vivo
Rattus norvegicus [8] = assay: Compound was tested in vivo for its antithrombotic efficacy in six rats upon intravenous administration of 10 ug/kg/min dose and activity expressed as number of occlusions; format: functional
Canis familiaris = assay: as §1; format: ADME, organism-based, Canis lupus familiaris; set-up: dose 1 mg/kg, route oral; settings: dog, in vivo
Rattus norvegicus [9] = assay: Final plasma concentration when 3 ug/kg/min compound administered intravenously in rat; format: ADME, organism-based; settings: in vivo, iv, 0.003 mg/kg
Rattus norvegicus [10] = assay: Compound was tested in vivo for its antithrombotic efficacy in six rats upon intravenous administration of 3 ug/kg/min dose and activity expressed as number of occlusions; format: functional

Row | Compound | pKi (Serine protease 1) | pKi (Prothrombin) | Concentration doubling APTT [5] | other results
1 | Cc1nc(N)ccc1CNC(=O)Cn1c(C)cc2c(c1=O)NC(=O)[C@H](CC1CCC1)C2 | 6.38 | – | 190 nM | concentration (Rattus norvegicus [1]): 596 nM; Activity (Rattus norvegicus [8]): 0
2 | Cc1nc(N)ccc1CNC(=O)Cn1c(C)ccc(NS(=O)(=O)Cc2ccccc2)c1=O [L-374087] | – | – | – | AUC [3]: 4.42 µM·h; T1/2 (Canis familiaris): 2.57 h
3 | Cc1nc(N)ccc1CNC(=O)Cn1c(C)cc2c(c1=O)NC(=O)[C@H](CC1CC1)C2 | 6.11 | 9.68 | 150 nM | concentration (Rattus norvegicus [9]): 185 nM; Activity (Rattus norvegicus [10]): 1
4 | CC[C@@H]1Cc2cc(C)n(CC(=O)NCc3ccc(N)nc3C)c(=O)c2NC1=O | 5.38 | 8.80 | 310 nM | –
5 | Cc1nc(N)ccc1CNC(=O)Cn1c(C)cc2c(c1=O)NC(=O)C(CC(C)C)(CC(C)C)C2 | – | – | 390 nM | –

Further lines, with some results ahead:

Row | pKi (Serine protease 1) | pKi (Prothrombin) | Compound | Concentration doubling APTT [5] | other results
6 | 6.24 | 9.40 | Cc1nc(N)ccc1CNC(=O)Cn1c(C)cc2c(c1=O)NC(=O)[C@H](CC(C)C)C2 | 220 nM | concentration (Rattus norvegicus [1]): 255 nM; Activity (Rattus norvegicus [2]): 0; AUC [3]: 0.75 µM·h; half-life [4]: 2.35 h; Cmax [6]: 180 nM; Tmax [7]: 1.17 h
7 | 4.90 | – | Cc1nc(N)ccc1CNC(=O)Cn1c(C)cc2c(c1=O)NC(=O)[C@H](Cc1ccccc1)C2 | 200 nM | –
8 | 6.29 | 9.48 | CCC[C@@H]1Cc2cc(C)n(CC(=O)NCc3ccc(N)nc3C)c(=O)c2NC1=O | 180 nM | –
9 | 6.07 | – | Cc1nc(N)ccc1CNC(=O)Cn1c(C)cc2c(c1=O)NC(=O)[C@](C)(CC(C)C)C2 | 160 nM | AUC [3]: 2.97 µM·h; half-life [4]: 1.5 h; Cmax [6]: 1370 nM; Tmax [7]: 0.5 h
10 | 4.66 | 7.44 | CCC[C@H]1Cc2cc(C)n(CC(=O)NCc3ccc(N)nc3C)c(=O)c2NC1=O | – | –
11 | 4.00 | – | Cc1nc(N)ccc1CNC(=O)Cn1c(C)cc2c(c1=O)NC(=O)CC2 | – | –
